Counter-ions that a name gives are not always drawn.

The results in this text go back to patent US10465230B2, “Chemiluminescence-based haemostasis assay” (Stichting Katholieke Universiteit, priority 2010, dated 2019).

Holding throughout (assay type): biochemical
The target of one assay is plasmin (Homo sapiens, UniProt P00747). Kind of assay: Chemiluminescent substrate cleavage by purified plasmin (luciferase/ATP luminescence). The following applies: for RLU plasmin: 40 nM plasmin final, instead of plasma, assay as example 1. The protocol:
(§1) In a 96-wells plate (final volume 120 μl), the following components were added:
(§2) 10 μl MeO—(CH2CH2O)2-acetyl-beta-Ala-Gly-Arg-aminoluciferin TFA salt (thrombin specific substrate (10 mM)), or pyroGlu-Phe-Lys-aminoluciferin TFA salt (plasmin specific substrate (10 mM))
(§3) 2 μl Luciferase (Sigma, 72 μg/ml),
(§4) 2 μl ATP (Sigma, 0.33 mM),
(§5) 14 μl TRIS/NaCl buffer (50 mM TRIS and 150 mM NaCl, pH 7.4).
(§6) This reaction mixture was mixed, followed by the addition of 4 μl TRIS/NaCl buffer with Ca^2+ to start thrombin generation. Final concentration 16.7 mM. The resultant was mixed rapidly, and thrombin generation was monitored in a Fluostar. The settings of the Fluostar were: 140 cycli of 30 seconds, Gain: Maximum=4095. Prior to measurement, 25 μl reaction mixture was taken from the well having a total volume of 120 μl. This was pipetted in a 384-well multi-titre plate suitable for measuring luminescence. The measurement was started immediately. Luminescence is depicted in Relative luminescence units (RLU).
Various substrates were analyzed using thrombin and plasmin The assay was essentially performed as described in example 1. […]

In assay [1] the target is T1, thrombin (Homo sapiens, UniProt P00734).
T1 construct: allowing factor Xa to convert prothrombin to thrombin
Kind of assay: Chemiluminescent substrate cleavage by purified thrombin (luciferase/ATP luminescence). The following applies: for RLU thrombin: 30 nM thrombin final, instead of plasma, assay as example 1; for RLU thrombin/RLU plasmin: ratio of signal with 30 nM thrombin to signal with 40 nM plasmin. On the procedure: as §1, §2, §3, §4, §5, §6
Various substrates were analyzed using thrombin and plasmin The assay was essentially performed as described in example 1. However, instead of plasma, plasmin or thrombin were added to final concentrations of 30 nM (thrombin) or 40 nM (plasmin).

Assay [2] concerns the target T1, thrombin. The description is as above. The following applies: 150 nM thrombin vs 40 nM plasmin in TBS buffer.

Sequence of plasmin (P00747 581-810 limits assumed, species assumed): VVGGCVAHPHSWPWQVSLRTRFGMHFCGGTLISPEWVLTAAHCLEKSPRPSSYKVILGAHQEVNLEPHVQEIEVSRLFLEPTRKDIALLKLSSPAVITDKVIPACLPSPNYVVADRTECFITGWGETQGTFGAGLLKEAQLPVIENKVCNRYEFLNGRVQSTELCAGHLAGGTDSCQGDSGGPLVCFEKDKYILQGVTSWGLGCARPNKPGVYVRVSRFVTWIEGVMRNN
Sequence of plasmin (P00747 97-580 partner limits assumed, species assumed): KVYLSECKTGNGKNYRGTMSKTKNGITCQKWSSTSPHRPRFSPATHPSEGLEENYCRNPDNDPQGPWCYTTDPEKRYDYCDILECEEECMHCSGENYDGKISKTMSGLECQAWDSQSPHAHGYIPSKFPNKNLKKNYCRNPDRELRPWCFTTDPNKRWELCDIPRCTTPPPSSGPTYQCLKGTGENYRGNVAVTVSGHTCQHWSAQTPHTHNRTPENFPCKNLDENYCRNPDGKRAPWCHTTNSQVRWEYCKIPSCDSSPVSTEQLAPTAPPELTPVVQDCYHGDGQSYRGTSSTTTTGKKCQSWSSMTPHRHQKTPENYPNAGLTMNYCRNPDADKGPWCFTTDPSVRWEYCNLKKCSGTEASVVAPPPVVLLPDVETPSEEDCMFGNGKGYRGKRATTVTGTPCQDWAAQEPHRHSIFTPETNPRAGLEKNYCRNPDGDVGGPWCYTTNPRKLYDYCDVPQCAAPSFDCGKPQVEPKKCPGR

As to `COCC(=O)NCCC(=O)NCC(=O)N[C@@H](CCCNC(=N)N)C(=O)Nc1ccc2nc(C3=N[C@@H](C(=O)O)CS3)sc2c1.O=C(O)C(F)(F)F` [CH3O-acetyl-beta-Ala-Gly-Arg-aminoluciferine•TFA], the RLU plasmin at plasmin was 294631 RLU. Besides, at thrombin [1], the RLU thrombin is given as 925567 RLU and the “RLU thrombin/RLU plasmin” value is 3.1.

For the compound `COCCOCCOCC(=O)NC(Cc1ccccc1)C(=O)NC(CCCNC(=N)N)C(=O)Nc1ccc2nc(C3=NC(C(=O)O)CS3)sc2c1.O=C(O)C(F)(F)F` (stereo not drawn) [CH3O—(CH2CH2O)2-acetyl-Phe-Arg-aminoluciferine•TFA], at plasmin, the RLU plasmin is recorded as 759874 RLU. In addition, at thrombin [1], the RLU thrombin is reported as 300946 RLU and the “RLU thrombin/RLU plasmin” value worked out at 0.40.

Turning to `COCCOCCOCCOCCOCC(=O)NC(Cc1ccccc1)C(=O)NC(CCCNC(=N)N)C(=O)Nc1ccc2nc(C3=NC(C(=O)O)CS3)sc2c1.O=C(O)C(F)(F)F` (stereo not drawn) [CH3O—(CH2CH2O)4-acetyl-Phe-Arg-aminoluciferine•TFA], the RLU plasmin on plasmin worked out at 1282351 RLU. Moreover, on thrombin [1], the RLU thrombin came to 340768 RLU and the “RLU thrombin/RLU plasmin” value was 0.27.

In turn, `COCCOCCOCCOCCOCC(=O)NCCC(=O)NCC(=O)N[C@@H](CCCNC(=N)N)C(=O)Nc1ccc2nc(C3=N[C@@H](C(=O)O)CS3)sc2c1.O=C(O)C(F)(F)F` [CH3O—(CH2CH2O)4-acetyl-beta-Ala-Gly-Arg-aminoluciferine•TFA] gave an RLU plasmin at plasmin of 134983 RLU. In addition, at thrombin [1], the RLU thrombin came out at 293198 RLU and the “RLU thrombin/RLU plasmin” value worked out at 2.2.

On to `N=C(N)NCCC[C@H](NC(=O)CNC(=O)CNC(=O)OCc1ccccc1)C(=O)Nc1ccc2nc(C3=N[C@@H](C(=O)O)CS3)sc2c1.O=C(O)C(F)(F)F` [Cbz-Gly-Gly-Arg-aminoluciferine•TFA], for which the RLU plasmin on plasmin was 146486 RLU. In addition, on thrombin [1], the RLU thrombin was found to be 771302 RLU and the “RLU thrombin/RLU plasmin” value came out at 5.3.

Turning to `N=C(N)NCCC[C@H](NC(=O)CNC(=O)CCN)C(=O)Nc1ccc2nc(C3=N[C@@H](C(=O)O)CS3)sc2c1.O=C(O)C(F)(F)F.O=C(O)C(F)(F)F` [H-beta-Ala-Gly-Arg-aminoluciferine•2TFA], the RLU plasmin on plasmin is recorded as 62387 RLU. At thrombin [1], the RLU thrombin amounted to 292161 RLU and the “RLU thrombin/RLU plasmin” value was 4.7.

Consider `COCCOCCOCC(=O)NCCC(=O)NCC(=O)NC(CCCNC(=N)N)C(=O)Nc1ccc2nc(C3=NC(C(=O)O)CS3)sc2c1.O=C(O)C(F)(F)F` (stereo not drawn) [MeO—(CH2CH2O)2-acetyl-beta-Ala-Gly-Arg-aminoluciferin TFA salt], for which the “reactivity of thrombin and plasmin on the S1 substrate (FIG. 1a)” value on thrombin [2] was “more susceptible for their respective enzyme”.

The compound `COCCOCCOCC(=O)NCCC(=O)NCC(=O)N[C@@H](CCCNC(=N)N)C(=O)Nc1ccc2nc(C3=N[C@@H](C(=O)O)CS3)sc2c1` [MeO—(CH2CH2O)2-acetyl-beta-Ala-Gly-Arg-aminoluciferin TFA salt] gave an RLU plasmin on plasmin of 251299 RLU. Also, at thrombin [1], the RLU thrombin was determined as 814171 RLU and the “RLU thrombin/RLU plasmin” value is given as 3.2.

With `NCCCC[C@H](NC(=O)[C@H](Cc1ccccc1)NC(=O)[C@@H]1CCC(=O)N1)C(=O)Nc1ccc2nc(C3=N[C@@H](C(=O)O)CS3)sc2c1` [PyroGlu-Phe-Lys-aminoluciferine•TFA, pyroGlu-Phe-Lys-aminoluciferin TFA salt], the “reactivity of thrombin and plasmin on the S2 substrate (FIG. 1b)” value on plasmin (4 nM plasmin vs 15 nM thrombin in TBS buffer) is on record as “more susceptible for their respective enzyme”. Further, on plasmin, the RLU plasmin turned out to be 1999875 RLU. Further, on thrombin [1], the RLU thrombin is reported as 139546 RLU and the “RLU thrombin/RLU plasmin” value turned out to be 0.07.
